Assay results as given in patent US20050203071A1, “Use of carbon-2-modified-19-nor-vitamin d analogs to induce the formation of new bone” (priority 2003, published 2005).
Read-outs that look alike come from different tables or passages of the source.

Legend:
[1] = tested on: human osteoblast cultures; assay: bone nodule formation in vitro in human osteoblast cultures (Von Kossa stain); format: cell-based; conditions: for stimulation of osteoblast cultures to form mineralized bone, Von Kossa stain (FIG. 2): different concentrations, human osteoblast cultures
From the text: Human bone samples discarded after surgical procedures from patients undergoing hip/knee replacement surgeries are obtained under an approved IRB protocol (Protocol #2001-055) and processed as described below. These bone pieces are otherwise routinely discarded as waste material during surgery.
The bone pieces are thoroughly washed and cleaned under sterile conditions using phosphate-buffered saline (PBS). These pieces are then cut to obtain smaller pieces (1-2 mm^3) and subjected to enzymatic digestion process to isolate osteoblasts as described below.
Osteoblastic cells are obtained from the bone pieces by collagenase digestion. Briefly, the bone samples are washed twice in PBS and dissected in about 1 mm^3 size fragments which are then sequentially digested in trypsin (1 mg/mL) for ten minutes, followed by dispase (2 mg/mL) for twenty minutes, and bacterial collagenase [Collagenase A] (3 mg/mL) twice for thirty minutes in PBS at 37° C. in a water bath. Cells released by collagenase digestion are then washed, counted and grown to sub-confluence in 25 cm^2 cell culture flasks in 1:1 Ham's F12/Dulbecco's modification of Eagle's medium (DMEM) supplemented with 10% fetal bovine serum. Cells are cultured at 37° C. in a humidified atmosphere of 5% CO2/95% air. Medium changes are made every 2-3 days and cells are cultured until they are 80% confluent. Cells are then trypsinized, washed and frozen from early passages for evaluation using techniques as described below.
In order to evaluate the ability of osteoblasts to form bone nodules in vitro, cells are cultured in 6 well plates at 1-3×10^5 cells/well. Cells are cultured in the presence of either 1,25-(OH)2D3 or vitamin D analogs at various doses for 7 days. Complete medium changes are carried out twice during the 7-day period and the medium is supplemented with fresh compounds (either 1,25-(OH)2D3 or 2-methylene-19-nor-(20S)-1α,25-dihydroxyvitamin D3—2MD) during each medium change. At days 10 and 13, complete medium changes are carried out and the compounds are replaced by treatment with ascorbic acid (50 μg/ml) and β-glycerol phosphate (10 mM). A third dose of ascorbic acid and β-glycerol phosphate is added to the cultures on day 15 if needed. Following the culture period, cells are stained using the Von Kossa technique. Briefly, cells are stained with 5% silver nitrate for 30 minutes in the dark, rinsed with distilled water, reduced with sodium carbonate/formaldehyde solution for 2 minutes and washed under tap water for 10 minutes. The cells are then stained with methyl green pyronin for 20 minutes, washed with water followed by two washes of absolute alcohol. […] Bone nodule formation in vitro can be assessed quantitatively by various published procedures.

ovariectomized rats = conditions: ovariectomized animal/rats, cited from earlier work

## C=C1/C(=C\C=C2/CCC[C@]3(C)[C@@H]([C@H](C)CCCC(C)(C)O)CC[C@@H]23)C[C@@H](O)C[C@@H]1O [1,25-(OH)2D3, 1α,25-dihydroxyvitamin D3, reference compound]
[1]; 10^−8 molar, after 14 days of incubation
  change in osteoblast cultures / formation of mineralized bone (FIG. 1): very little change
[1]
  stimulation of osteoblast cultures to form mineralized bone, Von Kossa stain (FIG. 2): does not produce this effect

## C=C1[C@H](O)CC(=C/C=C2\CCC[C@]3(C)[C@@H]([C@@H](C)CCCC(C)(C)O)CC[C@@H]23)C[C@H]1O [2MD, 2-methylene-19-nor-(20S)-1α,25-dihydroxyvitamin D3]
Ovariectomized rats
  bone mass: markedly stimulate bone mass accumulation
Ovariectomized rats; listed as 2-methylene-19-nor-20S-1,25-(OH)2D3
  bone mass: increase bone mass
[1]; concentration of 10^−12 molar
  degree of new bone formation: saturating degree of new bone formation
[1]
  stimulation of osteoblast cultures to form mineralized bone, Von Kossa stain (FIG. 2): unique and strong action

## CC1C(O)CC(=CC=C2CCC[C@]3(C)[C@@H]([C@@H](C)CCCC(C)(C)O)CC[C@@H]23)CC1O (stereo partly drawn) [2α-methyl-19-nor-20S-1,25-(OH)2D3, 2α-methyl-19-nor-20(S)-1α,25-dihydroxyvitamin D3]
Ovariectomized rats
  bone mass: increase bone mass
